Experimental findings from patent US6372963B1, “Transformation method for plants” (Aventis CropScience N.V., priority 1998, dated 2002) are described below.

Common to all, as to type: cell-based
Experiment [1] has as its system type I calli from the PHH corn line. Description: Agrobacterium-mediated transformation of plant-phenolic pre-treated type I callus from corn. To be noted: for Approximate mean transformation frequency with pretreatment: 5 days on 100-200 μM acetosyringone; for PAT-positive plant lines: about 4000 pre-treated callus fragments. An excerpt:
Type I callus fragments were obtained essentially as described in WO 92/09696. Immature embryos from corn line (Pa91xH99)xH99 (PHH-line) were excised from the kernel 9-12 days after pollination, surface sterilized and plated on Mahi1VII medium for the induction of type I callus. Type I callus was subcultured on the same medium with one month intervals for about two to six months. Next, type I callus was finely cut in fragments with an average length of about 1.5 mm, and the resulting fragments were incubated-for 5 days on LSIDhy1.5VII substrate supplemented with 100-200 μM acetosyringone. The pre-induced callus pieces were collected and without further wounding, immersed in a suspension of the appropriate Agrobacterium strain for about 3 to about 20 minutes. The bacterial suspension was obtained in the following way: bacteria were grown for 3 to 6 days on MAG medium [minimal A medium (Jeffrey Miller, 1972) supplemented with 2 g/L glucose] or AB medium (Chilton et al., 1974). The bacteria were harvested, and resuspended in liquid LSI substrate supplemented with 100-200 μM acetosyringone, at a concentration of about 5×10^9 cells/ml.
After immersion in the bacterial suspension, the callus fragments were co-cultivated on LSIIDhy1.5XI medium, supplemented with 100-200 μM acetosyringone, at about 25° C. for 3 to 6 days (3 days for LBA-type strain, 6 days for EHA-type strain).
After co-cultivation, the tissue was transferred to Ahx1.5VIIp500ino1000ppT10 and cultured for3 to 4 weeks. Proliferating, phosphinotricin (PPT)-resistant calli were excised and subcultured at least twice, with 3 week subculture intervals on Mh1VIIp500ppT5. Embryogenic PPT-resistant calli were plated on regeneration medium (A37VIIp500 ppT2.), and the embryogenic tissue was subcultured twice, with 10 to 14 day intervals, on the same medium. Small plants were transferred to glass containers containing A6%VIIp500ppT2 substrate for further growth, and developing shoots were then transferred to half-strength MS medium supplemented with 1.5% sucrose to allow further shoot elongation as well as rooting. Plants were tested for phosphinothricin acetyl transferase (PAT) activity, and PAT-positive plants were transferred to the greenhouse. PAT-positive plants were tested for the presence of the transgene by Southern hybridization.
Type I callus fragments were obtained as described in Example I and incubated for 5 days on LSIDhy1.5VII substrate supplemented with 100 μM of acetosyringone, followed by co-cultivation with Agrobacterium strain A3532 and A3638. For strain A3532 only I PAT-positive plant was obtained, even with acetosyringone pretreatment (transformation frequency<0.1%). However, the presence of the functional virB promoter preceding the virB11 open reading frame on the T-DNA vector, improved the transformation efficiency (see Table I) at least almost ten times.
Type I callus fragments were obtained as described in Example 1 and incubated for 5 days on LSIDhy1.5VII substrate supplemented with 100 μM of the plant phenolic compounds of Table II. Approximately 200 pre-induced callus fragments were co-cultivated with Agrobacterium strain A3637 (or A3638).
Type I callus fragments were obtained as described in Example 1 and incubated for 5 days on LSIDhy1.5VII substrate supplemented with either 200 μM of acetosyringone or a combination of 100 μM acetosyringone and 100 μM p-hydroxybenzoic acid. About 250 callus pieces were co-cultivated with Agrobacterium strain A3533. Whereas 2 shoot-regenerating lines (comprising 1 PAT-positive line) were obtained on PPT containing media after pre-induction on acetosyringone (frequency about 1%), 7 shoot regenerating lines (comprising 5 PAT-positive lines) were obtained on PPT containing media after pre-induction on acetosyringone plus p-hydroxybenzoic acid (frequency about 3%).

In a further experiment the test system is type I callus from corn. Description: Transformation by electroporation of acetosyringone pre-treated type I callus from corn. The settings on record: 5 days on 100 μM acetosyringone. As to the method:
Finely chopped pieces of calli, derived from type I callus and pre-incubated for 5 days on 100 μM acetosyringone-containing medium, as described in Example 1, were subjected without further wounding to electroporation as described in […]/09696. Briefly, about 50 callus pieces were resuspended in 100 μl EPM-KCl buffer and preplasmolyzed for 3 hr at room temperature. Next the callus pieces were washed in EPM+KCl buffer and transferred to an electrocuvette in EPM+KCl buffer. Plasmid DNA (10 μg of pDE110) was added, and the DNA was incubated with the callus fragments for about 1 hr at room temperature. Electroporation was carried out using standard conditions (1 pulse with initial field strength 375 V/cm from a 900 μF capacitor). The calli were never kept on ice. Phosphinotricin-resistant calli were selected and plants regenerated as described ([…]/09696). Phosphinotricin acetyl transferase activity was detected as described ([…]/09696).

For experiment [2], the system named is type I calli obtained from corn plant line Pa91. Description: Agrobacterium co-cultivation of acetosyringone pre-treated type I calli, Pa91 line.
In experiment [3] the test system is type I calli obtained from corn plant line (Pa91xH99)xPa91 (PHP). In words: Agrobacterium co-cultivation of acetosyringone pre-treated type I calli, PHP line.
[4] abbreviates: 5 days on 100 μM compound, approximately 200 callus fragments, strain A3637 (or A3638).
Where [5] appears, read: strain A3533, about 250 callus pieces, 200 μM acetosyringone or 100 μM acetosyringone + 100 μM p-hydroxybenzoic acid, 5 days.
The mark [6] stands for this setting: electroporation of about 530 callus pieces.

Where only a bound is given, the exact number is not on record here.

As for `O=C(O)c1ccc(O)cc1O` [2,4-dihydroxybenzoic acid, 2,4 dihydroxybenzoic acid], in experiment [1] (setting [4]), the “Number of PAT-positive lines” value came out at 1 and the Transformation frequency was 0.5%.
In the case of `O=C(O)c1ccc(O)c(O)c1` [3,4-dihydroxybenzoic acid], in experiment [1] (setting [4]), the “Number of PAT-positive lines” value is given as 2 and the Transformation frequency was 1%.
For the compound `COc1cc(C(C)=O)cc(OC)c1O` [acetosyringone, 3,5-dimethoxy-4-hydroxyacetophenone], the “Number of PAT-positive lines” value in experiment [1] (setting [4]) amounted to 2. Moreover, the Transformation frequency was 1% in experiment [1] (setting [4]); below 0.1% in experiment [1] (strain A3532, 5 days on 100 μM acetosyringone); “about 0.75%” in the experiment with type I callus from corn (setting [6]). Moreover, the figures for the “Approximate mean transformation frequency with pretreatment” value in experiment [1] (Agrobacterium strain A3533), in experiment [1] (Agrobacterium strain A3637) and in experiment [1] (Agrobacterium strain A3638) were 0.8%, 0.8% and 0.9%, respectively. The “low concentration still giving a good effect on transformation efficiency” value in experiment [1] (pretreatment medium) is given as “approximately 25 μM”. Also, the “optimal concentration in the medium” value in experiment [1] (pretreatment medium) is “approximately 200 μM”. The PAT-positive lines in experiment [1] (strain A3460, about 1700 pre-treated callus fragments) was determined as 5; in experiment [1] (setting [5]), 1. In experiment [1] (setting [5]), the frequency result is on record as “about 1%”. For the same compound, in experiment [1] (setting [5]), the “shoot-regenerating lines on PPT containing media” value came out at 2. The PAT-positive plant lines in experiment [1] (strain A3533) turned out to be 30; in experiment [1] (strain A3637), 33; in experiment [1] (strain A3638), 37. Also, the average transformation frequencies entry in experiment [1] (strains A3638, A3533 and A3637, about 4000 pre-treated callus fragments each) is given as “about 1%”. Also, the “increase in transformation efficiency by pretreatment” value in experiment [1] (versus no pretreatment, co-cultivation with Agrobacterium strains) is recorded as “at least three times”. The PAT-positive plants in the experiment on type I callus from corn (setting [6]) came to 4. For the same compound, in the experiment on type I callus from corn (electroporation), the “transformation frequency relative to callus not pre-treated” value is recorded as “about three times higher”. The “effect of pre-treatment on transformation frequency” value in experiment [2] and in experiment [3] was “Enhancement of transformation frequency” in each case.
For the compound `O=C(O)c1cc(O)c(O)c(O)c1` [gallic acid, 3,4,5-trihydroxybenzoic acid], in experiment [1] (setting [4]), the “Number of PAT-positive lines” value was found to be 3 and the Transformation frequency was 1.5%.
On to `Oc1ccccc1O` [catechol, 1,2-dihydroxybenzene], for which, in experiment [1] (setting [4]), the “Number of PAT-positive lines” value is on record as 1 and the Transformation frequency amounted to 0.5%.
Turning to `COc1cc(C=O)ccc1O` [vanillin, 3-methoxy-4-hydroxybenzaldehyde], in experiment [1] (setting [4]), the “Number of PAT-positive lines” value worked out at 4 and the Transformation frequency amounted to 2%.
The matching figures for `O=C(O)c1ccc(O)cc1` [p-hydroxybenzoic acid, 4-hydroxybenzoic acid]: 2 and 1%.
